Here are results for 13 molecules from ChEMBL document CHEMBL3865835, “α-Glucosidase and α-Amylase Inhibitors from Arcytophyllum thymifolium” (J Nat Prod, 2016).

The source made the active and inactive calls. The rule behind the calls is not given here.

As a reminder, the IC50 is the midpoint of a concentration-inhibition curve. A higher IC50 goes with weaker potency in that assay.

In test [1] the target is T1, Pancreatic alpha-amylase (Sus scrofa) (UniProt P00690).
T1 sequence (whole entry): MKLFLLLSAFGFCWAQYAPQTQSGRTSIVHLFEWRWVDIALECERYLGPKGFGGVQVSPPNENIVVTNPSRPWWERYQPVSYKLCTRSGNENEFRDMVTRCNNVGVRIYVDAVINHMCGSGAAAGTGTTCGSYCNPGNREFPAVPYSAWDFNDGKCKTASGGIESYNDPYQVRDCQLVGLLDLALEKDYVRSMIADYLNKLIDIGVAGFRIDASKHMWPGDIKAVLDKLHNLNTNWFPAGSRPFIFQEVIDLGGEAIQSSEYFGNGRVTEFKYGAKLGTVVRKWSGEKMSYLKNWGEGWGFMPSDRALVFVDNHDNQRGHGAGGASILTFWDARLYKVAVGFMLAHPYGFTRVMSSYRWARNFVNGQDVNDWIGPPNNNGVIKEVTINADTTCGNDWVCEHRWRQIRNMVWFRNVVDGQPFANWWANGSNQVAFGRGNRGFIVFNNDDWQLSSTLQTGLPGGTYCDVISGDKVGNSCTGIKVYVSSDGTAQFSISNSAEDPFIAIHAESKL
As to the kind of experiment: (§1) Inhibition of hog pancreas alpha-amylase using starch as substrate preincubated for 10 mins followed by substrate addition measured after 10 mins by dinitrosalicylic acid color reagent-based UV-Vis spectrophotometric analysis.

For test [2], the system named is Saccharomyces cerevisiae. The experiment in a line: (§2) Inhibition of Saccharomyces cerevisiae alpha-glucosidase using 4-nitrophenyl alpha-D-glucopyranoside as substrate after 10 mins by UV-Vis spectrophotometric analysis.
Test [3] can be described thus: as §2.
Test [4] deals with Saccharomyces cerevisiae. The experiment in a line: Potency index, ratio of acarbose IC50 to compound IC50 for Saccharomyces cerevisiae alpha-glucosidase.
The target of another test is T2, Pancreatic alpha-amylase (Sus scrofa, UniProt P00690).
T2 sequence (P00690 whole entry): T1 sequence (whole entry)
Described as §1.

As to `C=C(C)C(O)Cc1c(O)c(OC)cc2ccc(=O)oc12` (configuration not stated), the inhibition entry (in test [1]; in the test on Saccharomyces cerevisiae [2]) was “Active” each time.
For the molecule `CC(C)=CCOc1cc(O)c2c(c1)O[C@H](c1ccc(O)c(O)c1)CC2=O`, in test [3], the IC50 was determined as 28.1 µM. In the test with Saccharomyces cerevisiae [4], the Ratio IC50 came to 10.
Turning to `C[C@H]1O[C@H](O[C@H]2[C@H](O)[C@@H](O)[C@@H](O[C@H]3[C@H](O)[C@@H](O)C(O)O[C@@H]3CO)O[C@@H]2CO)[C@H](O)[C@@H](O)[C@@H]1N[C@H]1C=C(CO)[C@@H](O)[C@H](O)[C@H]1O` (some centres not stated) [ACARBOSE], it took 403 µM to reach half-maximal inhibition in test [3] (IC50).
Turning to `COc1cc2ccc(=O)oc2c2c1O[C@](C)(CO)C(O)=C2`, the inhibition entry (in test [1]; in the test with Saccharomyces cerevisiae [2]) was “Active” throughout.
Regarding `COc1cc(O)c2c(=O)c(O)c(-c3ccc(O)c(O)c3)oc2c1` [RHAMNETIN], the midpoint of inhibition against Pancreatic alpha-amylase, the IC50, lay at 73.9 µM. This lies in the double-digit micromolar range.
Take `COc1cc2ccc(=O)oc2c(O)c1O`: in the test with Saccharomyces cerevisiae [2], the inhibition entry was “Active”.
In the case of `O=C(O)C1=CO[C@@H](O[C@@H]2O[C@H](CO)[C@@H](O)[C@H](O)[C@H]2O)[C@@H]2C(CO)=C[C@@H](O)[C@H]12`, the inhibition result in test [1] was “Active”.
Same read-out and setting: with `O=c1c(O[C@@H]2O[C@H](CO)[C@H](O)[C@H](O)[C@H]2O[C@@H]2O[C@H](CO)[C@@H](O)[C@H](O)[C@H]2O)c(-c2ccc(O)cc2)oc2cc(O)cc(O)c12` the entry was “Active”.
Consider `CC(=O)OCC1=C[C@@H]2OC(=O)C3=CO[C@@H](O[C@@H]4O[C@H](CO)[C@@H](O)[C@H](O)[C@H]4O)[C@H]1[C@@H]32`, for which the inhibition entry in test [1] was “Active”.
With `CC(=O)OCC1=C[C@H](O)[C@@H]2C(C(=O)O)=CO[C@@H](O[C@@H]3O[C@H](CO)[C@@H](O)[C@H](O)[C@H]3O)[C@H]12`, it took 69.4 µM to reach half-maximal inhibition at Pancreatic alpha-amylase (IC50).
In the case of `C=C(C)[C@H]1Cc2c(c(O)cc3ccc(=O)oc23)O1`, the inhibition entry (in test [1]; in the test with Saccharomyces cerevisiae [2]) was “Active” in each case.
Consider `C[C@]1(CO)Oc2c(O)cc3ccc(=O)oc3c2C=C1O`, for which the inhibition result in test [1] is “Active”.
The same measure, in the same setting: in the case of `O=C(/C=C/c1ccc(O)c(O)c1)O[C@@H]1C[C@](O)(C(=O)O)C[C@@H](O)[C@H]1O` it was “Active”.
